Read-outs that look alike come from different tables or passages of the source.
Columns and labels:
[1] = AlphaScreen counterscreen against bio-H3K4me2 peptide in the absence of enzyme (artifact signal); conditions: for Artifact Signal (percent): effect of the compound when incubated with bio-H3K4me2 peptide (counterscreen, no enzyme); for Artifact signal: effect of the compound when it is incubated with bio-H3K4me2 peptide: counterscreen, no enzyme;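 on all read-outs here: counterscreen run without enzyme against bio-H3K4me2 peptide to remove false positive hits from the JARID1 demethylase AlphaScreen screen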
JARID1B = target: T1, JARID1B (Homo sapiens, UniProt Q9UGL1); assay: FLAG-JARID1B histone demethylase assay with AlphaScreen detection (HTS and dose response); format: biochemical; conditions: for Assay − Artifact Signal (percent): assay signal minus artifact signal; for inhibition at 20 µM: high-throughput screen, compound 20 μM, read-out: Inhibitory effect (percent); for Assay Signal (percent) / Validation result of HTS active: effect of the compound in the JARID1B AlphaScreen demethylase assay: validation of HTS actives; for Assay Signal (percent): effect of compound in JARID1B AlphaScreen assay; for Validation result of HTS active: effect of the compound in the JARID1B AlphaScreen demethylase assay: total signal before subtraction of artifact signal;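 on Assay Signal (percent): compound tested at 20 µM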;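 on Assay − Artifact Signal (percent): compound tested at 20 µM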;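 on all read-outs here: FLAG-tagged JARID1B at 4 nM acting on a biotinylated H3K4me3 peptide, demethylation read by AlphaScreen luminescence, with hits checked against bio-H3K4me2 without enzyme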
T1 construct: The FLAG tagged full length JARID1B enzyme was expressed in Sf21 insect cells using FLAG-JARID1B baculoviruses; FLAG (N); made in house; host or cells: Sf21 insect cells (baculovirus)
T1 sequence (Q9UGL1 whole entry): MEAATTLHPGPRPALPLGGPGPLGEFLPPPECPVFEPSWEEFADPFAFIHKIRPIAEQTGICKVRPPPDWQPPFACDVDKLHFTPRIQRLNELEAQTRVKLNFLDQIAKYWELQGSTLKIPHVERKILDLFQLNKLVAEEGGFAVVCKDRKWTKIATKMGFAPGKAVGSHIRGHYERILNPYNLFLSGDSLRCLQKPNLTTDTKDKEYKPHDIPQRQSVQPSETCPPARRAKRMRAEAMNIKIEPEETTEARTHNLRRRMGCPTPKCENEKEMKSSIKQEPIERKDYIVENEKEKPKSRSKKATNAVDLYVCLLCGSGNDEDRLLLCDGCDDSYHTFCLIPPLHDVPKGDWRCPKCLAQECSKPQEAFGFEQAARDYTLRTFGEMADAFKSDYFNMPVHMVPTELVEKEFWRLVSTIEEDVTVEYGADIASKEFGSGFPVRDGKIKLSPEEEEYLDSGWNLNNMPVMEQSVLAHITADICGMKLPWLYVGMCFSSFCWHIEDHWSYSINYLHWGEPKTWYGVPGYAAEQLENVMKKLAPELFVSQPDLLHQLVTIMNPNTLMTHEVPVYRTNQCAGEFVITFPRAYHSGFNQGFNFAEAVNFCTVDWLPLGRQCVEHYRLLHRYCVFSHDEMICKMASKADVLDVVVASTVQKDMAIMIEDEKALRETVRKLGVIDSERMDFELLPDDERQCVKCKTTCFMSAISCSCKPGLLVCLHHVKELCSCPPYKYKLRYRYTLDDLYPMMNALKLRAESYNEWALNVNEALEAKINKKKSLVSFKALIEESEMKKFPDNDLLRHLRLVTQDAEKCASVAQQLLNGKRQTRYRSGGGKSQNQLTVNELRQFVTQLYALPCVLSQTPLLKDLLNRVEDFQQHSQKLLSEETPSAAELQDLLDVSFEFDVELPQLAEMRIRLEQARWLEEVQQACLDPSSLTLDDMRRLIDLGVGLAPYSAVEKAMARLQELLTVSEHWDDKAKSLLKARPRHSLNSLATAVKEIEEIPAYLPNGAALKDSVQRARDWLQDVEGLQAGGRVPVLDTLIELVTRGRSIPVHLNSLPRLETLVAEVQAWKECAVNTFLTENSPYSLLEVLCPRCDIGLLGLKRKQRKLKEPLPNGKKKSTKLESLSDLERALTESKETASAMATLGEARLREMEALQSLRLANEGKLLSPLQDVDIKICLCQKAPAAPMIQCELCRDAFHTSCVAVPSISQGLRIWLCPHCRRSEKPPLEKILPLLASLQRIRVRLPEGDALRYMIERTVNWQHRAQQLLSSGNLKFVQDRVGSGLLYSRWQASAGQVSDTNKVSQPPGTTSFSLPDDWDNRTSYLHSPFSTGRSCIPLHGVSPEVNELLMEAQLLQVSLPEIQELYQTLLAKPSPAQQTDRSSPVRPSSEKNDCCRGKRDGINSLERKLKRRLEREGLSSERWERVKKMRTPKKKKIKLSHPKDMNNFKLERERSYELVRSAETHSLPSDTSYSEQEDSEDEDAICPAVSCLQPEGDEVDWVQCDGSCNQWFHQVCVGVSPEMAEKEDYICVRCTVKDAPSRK

[2] = standard demethylase conditions (10 μM α-KG, 50 μM Fe (II))

Compound	Artifact Signal (percent) [1] [%]	Assay − Artifact Signal (percent) (JARID1B) [%]	inhibition at 20 µM (JARID1B; [2]) [%]	Assay Signal (percent) (JARID1B) [%]	Artifact signal: effect of the compound when it is incubated with bio-H3K4me2 peptide [1]	Validation result of HTS active: effect of the compound in the JARID1B AlphaScreen demethylase assay (JARID1B)	inhibition at 20 µM (JARID1B; IDs marked *: additional hits under reaction condition with 1 mM α-KG) [%]
Cc1c(C(=O)O)cccc1-c1ccc(C=C[N+](=O)[O-])o1 (single isomer, unassigned) [YU147801]	16.98	14.43	56.9	31.41			
C=CCOc1c(Cl)cc(C=C[N+](=O)[O-])cc1OCC (single isomer, unassigned) [YU148636]	−0.47	11.11	34.7	10.64			
Cc1ccc(C(C#N)=Cc2ccc(N3CCOCC3)o2)cc1 (single isomer, unassigned) [YU149607]	2.50	37.94	43.1	40.44			
Cn1c(SCC=Cc2ccccc2)nnc1-c1cnccn1 (single isomer, unassigned) [YU151184]			33.8		−5.59	1.02	
N#CC(=Cc1ccc(N2CCCCC2)o1)c1ccc([N+](=O)[O-])cc1 (single isomer, unassigned) [YU152765]	2.40	9.56	42	11.96			
COc1cc(C=C[N+](=O)[O-])ccc1OCc1cccc(C(=O)O)c1 (single isomer, unassigned) [YU153545]	91.35	8.98	101	100.32			
N#CC(=Cc1ccncc1)c1nc2cc(C(F)(F)F)ccc2s1 (single isomer, unassigned) [YU153803]	−5.27	99.03	90.8	93.75			
N#CC(=Cc1ccc(O)c(O)c1)C(N)=O (single isomer, unassigned) [YU154833, TYRPHOSTIN 46, reference compound]	4.32	46.11	76.8	50.42			
N#CC(=Cc1ccc(O)c(O)c1)C(N)=S (single isomer, unassigned) [YU154834, TYRPHOSTIN 47, reference compound]	18.48	21.75	46.5	40.23			
N#CC(=Cc1cc(O)c(O)c(O)c1)C(N)=C(C#N)C#N (single isomer, unassigned) [YU154835, TYRPHOSTIN 51, reference compound]	23.01	23.04	69.7	46.05			
Cc1ccc(S(=O)(=O)C=CC#N)cc1 (single isomer, unassigned) [YU154885, BAY 11-7082, reference compound]	−5.88	41.45	43.6	35.57			
COC1=CC(=O)C(O)=CC1=CC=Cc1ccccc1 (single isomer, unassigned) [YU155007, OBTUSAQUINONE, reference compound]	7.90	43.75	48.7	51.64			
O=C(O)C=Cc1ccc(O)c(O)c1 (single isomer, unassigned) [YU155280, CAFFEIC ACID, reference compound]	−1.92		67.3				
C=NC(C(=O)N[C@H]1C(=O)N2C1SC(C)(C)C2C(=O)O)c1ccccc1 (stereo in doubt) [YU034263, METAMPICILLIN SODIUM, reference compound]	0.13	24.14	95.6	24.27	0.44	3.14	
O=C(OC[C@H]1O[C@@H](OC(=O)c2cc(O)c(O)c(OC(=O)c3cc(O)c(O)c(O)c3)c2)[C@H](OC(=O)c2cc(O)c(O)c(OC(=O)c3cc(O)c(O)c(O)c3)c2)[C@@H](OC(=O)c2cc(O)c(O)c(OC(=O)c3cc(O)c(O)c(O)c3)c2)[C@@H]1OC(=O)c1cc(O)c(O)c(OC(=O)c2cc(O)c(O)c(O)c2)c1)c1cc(O)c(O)c(OC(=O)c2cc(O)c(O)c(O)c2)c1 (stereo in doubt) [YU034398, TANNIC ACID, reference compound]			105		99.54	104.83	
COc1cccc2c1C(=O)c1c(O)c3c(c(O)c1C2=O)C[C@@](O)(C(=O)CO)C[C@@H]3O[C@H]1C[C@H](N)[C@@H](O)[C@H](C)O1.Cl (stereo in doubt) [YU039604, EPIRUBICIN HYDROCHLORIDE, reference compound]			81.9		3.76	10.74	
COc1cccc2c1C(=O)c1c(O)c3c(c(O)c1C2=O)C[C@@](O)(C(=O)CO)C[C@@H]3O[C@H]1C[C@H](N)[C@H](O)[C@H](C)O1.Cl (stereo in doubt) [YU039629, DOXORUBICIN HYDROCHLORIDE, reference compound]			80.3		3.92	8.94	
CC(=O)[C@]1(O)Cc2c(O)c3c(c(O)c2[C@@H](O[C@H]2C[C@H](N)[C@H](O)[C@H](C)O2)C1)C(=O)c1ccccc1C3=O.Cl (stereo in doubt) [YU040321, IDARUBICIN HCl, reference compound]			92.3		−9.53	−11.32	
O=C(OC[C@H]1O[C@@H](OC(=O)c2cc(O)c(O)c(OC(=O)c3cc(O)c(O)c(O)c3)c2)[C@H](OC(=O)c2cc(O)c(O)c(OC(=O)c3cc(O)c(O)c(O)c3)c2)[C@@H](OC(=O)c2cc(O)c(O)c(OC(=O)c3cc(O)c(O)c(O)c3)c2)[C@@H]1OC(=O)c1cc(O)c(O)c(OC(=O)c2cc(O)c(O)c(O)c2)c1)c1cc(O)c(O)c(OC(=O)c2cc(O)c(O)c(O)c2)c1 (stereo in doubt) [YU153507, TANNIC ACID, reference compound]					99.80	105.15	
O=C(O[C@@H]1Cc2c(O)cc(O)cc2O[C@@H]1c1cc(O)c(O)c(O)c1-c1c([C@H]2Oc3cc(O)cc(O)c3C[C@H]2OC(=O)c2cc(O)c(O)c(O)c2)cc(O)c(O)c1O)c1cc(O)c(O)c(O)c1 (stereo in doubt) [YU155084, 2,2-BISEPIGALLO- CATECHIN DIGALLATE, reference compound]			102		91.60	98.89	
CN[C@@H]1[C@H](O[C@H]2O[C@H](CO)[C@@H](N)[C@H](O)[C@H]2O)O[C@H]2C[C@@H](N)[C@H](O[C@@H]3[C@H](O)[C@@H](O)[C@H](N)C[C@@H]3N)O[C@@H]2[C@@H]1O (stereo in doubt) [YU155086, APRAMYCIN, reference compound]					−4.67	−19.45	43.2
O=C(O[C@@H]1Cc2c(O)cc(O)cc2O[C@@H]1c1cc(O)c(=O)c2c(O)c(O)cc([C@H]3Oc4cc(O)cc(O)c4C[C@H]3OC(=O)c3cc(O)c(O)c(O)c3)c2c1)c1cc(O)c(O)c(O)c1 (stereo in doubt) [YU155100, THEAFLAVIN DIGALLATE, reference compound]			105		98.76	104.28	
O=C(O)c1cc(O)c2c(c1)[C@@H]([C@H]1c3cc(C(=O)O)cc(O)c3C(=O)c3c(O[C@H]4O[C@H](CO)[C@@H](O)[C@H](O)[C@H]4O)cccc31)c1cccc(O[C@H]3O[C@H](CO)[C@@H](O)[C@H](O)[C@H]3O)c1C2=O (stereo in doubt) [YU155201, SENNOSIDE A, reference compound]			60		68.65	72.27	

From patent US20150272939A1, “Identification of Small Molecule Inhibitors of Jumonji AT-Rich Interactive Domain 1A (JARID1A) and 1B (JARID1B) Histone Demethylase” (Yale University, priority 2012, published 2015)
